Data taken from patent US20090131523A1, “Lipid compositions for the treatment and prevention of proliferative diseases and for the reduction of incidences of mutagenesis and carinogenesis” (Enzymotec Ltd., priority 2007, published 2009).

Key:
[1] = test system: tk locus of L5178Y mouse lymphoma cells; assay type: cell-based; settings: 10 μg/ml
Text: The MLA assay evaluates the mutagenic potential of the tested oils based on quantitation of forward mutations at the tk locus of L5178Y in mouse lymphoma cells. The mutagenicity of the test agents is indicated by the increase in the number of mutants after treatment. The tk enzyme is responsible for incorporating exogenous thymidine via a salvage pathway, into the cell in the form of thymidine monophosphate. Analogues of thymidine, such as trifluorothymidine (TFT) can also be phosphorylated by tk enzyme, which leads to cell toxicity. Forward mutation at this locus results in a loss of tk activity and subsequent resistance to TFT, which is used as the selective agent to kill wild type cells. Thus the tk mutants are not killed by TFT and are able to survive due to their ability to synthesize […] de novo.
The objective of the MLA assay was to study the inhibitory effect of Fat blend 6 (Table 2) on the incidence of mammalian cell gene mutations. Each group of L5178Y cells was incubated with one of the tested oils, i.e. with Fat blend 6 or with oil containing low palmitic acid (LPO), and the incidence of specific mutations was examined using the MLA assay. The study experiments were performed with a constant concentration of reference mutagen. Additionally, several concentrations of the test items were used. Positive and negative controls were included in the experiment.
Study procedure: 1×10^7 cells/culture (80 cm^2 flasks) were exposed to several concentrations of tested oil in the presence of the mutagen (10 μg/ml MMS) in parallel to the negative and positive controls (Table 6, FIG. 2). Cells were incubated with the tested oil and mutagen for 3-4 hours to induce and increase the efficiency of anti-mutagenesis effect. Following the incubation, the mutagen was removed by centrifugation (400 g, 5 min) and the cells were washed twice. Subsequently the cells were re-suspended in growth medium for an expression period of 4 days. Following expression period, cultures were seeded in selective medium (containing TFT). Cells from each experimental group were seeded in four 96-well plates at a density of 2000 cells/well in selective medium. After an incubation period of 11 days at 37±1° C., 5±0.5% CO2 and 95±5% humidified atmosphere, the number of colony containing/empty wells was scored using microscope. The colonies size and/or morphology were also characterized. The inhibitory effect of the 2 tested oils was evaluated using the following criteria: (a) a decrease of Mutation Frequencies in the presence of tested oil related to the positive control. (b) Decreased occurrence of small colonies (slow growth colonies) indicated by a high large/small colonies ratio was an indication for inhibitory potential clastogenic effects and/or chromosomal aberrations.
The study was conducted based on the Ninth Addendum to OECD Guidelines for Testing of Chemicals, Section 4, No. 476, “In Vitro Mammalian Cell Gene Mutation Test”, adapted 21 Jul. 1997. This type of study was used in Whittaker P, Evaluation of commercial kava extracts and kavalactone standards for mutagenicity and toxicity using the mammalian cell gene mutation assay in L5178Y mouse lymphoma cells, Food Chem. Toxicol. 2007.

[2] = palmitic acid in yoghurt; Nadathur et al. 1996; cited from earlier work
[3] = test system: squamous cell carcinoma (SCC); settings: Harris et al. 2005; cited from earlier work

| SMILES | % change in mutants compare to MMS treat [1] | Colony Sizing Large/small [1] | Mutants/10^6 cells [1] | Mutation factor [1] | relative suspension growth (RSG) [1] | anti-MNNG activity [2] | association of increasing dietary proportions with squamous cell carcinoma [3] |
| --- | --- | --- | --- | --- | --- | --- | --- |
| COS(C)(=O)=O [MMS, methyl methane sulfonate] | 100% | 1.53 | 489 per 10^6 cells | 12 | 65.8% | – | – |
| CCCCCCCCCCCCCCCC(=O)O [palmitic acid] | – | – | – | – | – | exerts anti-N-methyl-N′-nitro-N-nitrosoguanidine (MNNG) activity | associated with reduced squamous cell carcinoma (SCC) |
| CCCCCC/C=C\CCCCCCCC(=O)O [palmitoleic acid] | – | – | – | – | – | – | associated with reduced squamous cell carcinoma (SCC) |
